PubChem BioAssay AID1963959 (Molecular Pharmacology Branch, DTP, NCI, 2024)

System: T-47D spheroids with HUVEC/MSC, viability
Test: Anticancer human tumor T-47D cell line growth inhibition [PI3K];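 note: spheroids exposed to agents for seven days before reading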;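 for viability, T/C: percent of DMSO vehicle control luminescence so 100% = untreated growth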
Conditions: for IC50: curve of first compound; for viability, T/C: stronger effect = lower value
Summary of the method: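 Combination activity was assessed by viability in multicellular tumor spheroids carrying HUVEC and MSC components. Agents were tested with PI3K inhibitors from a Cmax-based top dose (or 10 microM) downward in half-log increments.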

[1] = second compound 0.00316 µM, first compound 0.0316 µM
[2] = second compound 0.00316 µM, first compound 0.1 µM
[3] = second compound 0.00316 µM, first compound 0.316 µM
[4] = second compound 0.00316 µM, first compound 1 µM
[5] = second compound 0.00316 µM, first compound 3.16 µM
[6] = second compound 0.00316 µM, first compound 10 µM
[7] = second compound 0.01 µM, first compound 0.0316 µM
[8] = second compound 0.01 µM, first compound 0.1 µM
[9] = second compound 0.01 µM, first compound 0.316 µM
[10] = second compound 0.01 µM, first compound 1 µM
[11] = second compound 0.01 µM, first compound 3.16 µM
[12] = second compound 0.01 µM, first compound 10 µM
[13] = second compound 0.0316 µM, first compound 0.0316 µM
[14] = second compound 0.0316 µM, first compound 0.1 µM
[15] = second compound 0.0316 µM, first compound 0.316 µM
[16] = second compound 0.0316 µM, first compound 1 µM
[17] = second compound 0.0316 µM, first compound 3.16 µM
[18] = second compound 0.0316 µM, first compound 10 µM
[19] = second compound 0.1 µM, first compound 0.0316 µM
[20] = second compound 0.1 µM, first compound 0.1 µM
[21] = second compound 0.1 µM, first compound 0.316 µM
[22] = second compound 0.1 µM, first compound 1 µM
[23] = second compound 0.1 µM, first compound 3.16 µM
[24] = second compound 0.1 µM, first compound 10 µM
[25] = second compound 0.316 µM, first compound 0.0316 µM
[26] = second compound 0.316 µM, first compound 0.1 µM
[27] = second compound 0.316 µM, first compound 0.316 µM
[28] = second compound 0.316 µM, first compound 1 µM
[29] = second compound 0.316 µM, first compound 3.16 µM
[30] = second compound 0.316 µM, first compound 10 µM
[31] = second compound 1 µM, first compound 0.0316 µM
[32] = second compound 1 µM, first compound 0.1 µM
[33] = second compound 1 µM, first compound 0.316 µM
[34] = second compound 1 µM, first compound 1 µM
[35] = second compound 1 µM, first compound 3.16 µM
[36] = second compound 1 µM, first compound 10 µM

C=CC(=O)N1CCN(c2nc(=O)n(-c3c(C)ccnc3C(C)C)c3nc(-c4c(O)cccc4F)c(F)cc23)C(C)C1 (stereo unspecified) + CC(Nc1ccc2c(c1)OCCn1cc(N3C(=O)OCC3C(F)F)nc1-2)C(N)=O
IC50 (second compound 0.00316 µM): > 10 µM | IC50 (second compound 0.01 µM): > 10 µM | IC50 (second compound 0.0316 µM): > 10 µM | IC50 (second compound 0.1 µM): > 10 µM | IC50 (second compound 0.316 µM): > 10 µM | IC50 (second compound 1 µM): < 0.0316 µM | viability, T/C [1]: 87.5% | viability, T/C [2]: 103% | viability, T/C [3]: 78.8% | viability, T/C [4]: 86.3% | viability, T/C [5]: 97.3% | viability, T/C [6]: 113% | viability, T/C [7]: 104% | viability, T/C [8]: 67.8% | viability, T/C [9]: 106% | viability, T/C [10]: 84.8% | viability, T/C [11]: 99.9% | viability, T/C [12]: 92.1% | viability, T/C [13]: 99% | viability, T/C [14]: 84.8% | viability, T/C [15]: 95.9% | viability, T/C [16]: 98% | viability, T/C [17]: 88.2% | viability, T/C [18]: 88.3% | viability, T/C [19]: 81.2% | viability, T/C [20]: 83.6% | viability, T/C [21]: 83.8% | viability, T/C [22]: 98.5% | viability, T/C [23]: 82.9% | viability, T/C [24]: 96.8% | viability, T/C [25]: 71.2% | viability, T/C [26]: 73.3% | viability, T/C [27]: 77% | viability, T/C [28]: 74.5% | viability, T/C [29]: 75.9% | viability, T/C [30]: 79.2% | viability, T/C [31]: 48.5% | viability, T/C [32]: 47.2% | viability, T/C [33]: 59% | viability, T/C [34]: 54.2% | viability, T/C [35]: 63.4% | viability, T/C [36]: 67.2%

C[C@@H](NC(=O)c1ncnc(N)c1Cl)c1ncc(C(=O)Nc2cc(C(F)(F)F)c(Cl)cn2)s1 + Cc1nc(NC(=O)N2CCCC2C(N)=O)sc1-c1ccnc(C(C)(C)C(F)(F)F)c1
IC50 (second compound 0.0316 µM): > 10 µM | IC50 (second compound 0.1 µM): > 10 µM | IC50 (second compound 0.316 µM): > 10 µM | IC50 (second compound 1 µM): > 10 µM | IC50 (second compound 3.16 µM): > 10 µM | IC50 (second compound 10 µM): < 0.0316 µM | viability, T/C [13]: 108% | viability, T/C [14]: 99.6% | viability, T/C [15]: 88.5% | viability, T/C [16]: 87.2% | viability, T/C [17]: 88% | viability, T/C [18]: 102% | viability, T/C [19]: 109% | viability, T/C [20]: 80.1% | viability, T/C [21]: 105% | viability, T/C [22]: 80.6% | viability, T/C [23]: 93% | viability, T/C [24]: 99.5% | viability, T/C [25]: 94.3% | viability, T/C [26]: 99.5% | viability, T/C [27]: 109% | viability, T/C [28]: 86.8% | viability, T/C [29]: 97.7% | viability, T/C [30]: 97.3% | viability, T/C [31]: 88% | viability, T/C [32]: 86.7% | viability, T/C [33]: 90.4% | viability, T/C [34]: 91.4% | viability, T/C [35]: 95.6% | viability, T/C [36]: 100% | viability, T/C (second compound 3.16 µM, first compound 0.0316 µM): 78% | viability, T/C (second compound 3.16 µM, first compound 0.1 µM): 69.3% | viability, T/C (second compound 3.16 µM, first compound 0.316 µM): 68.1% | viability, T/C (second compound 3.16 µM, first compound 1 µM): 64% | viability, T/C (second compound 3.16 µM, first compound 3.16 µM): 74% | viability, T/C (second compound 3.16 µM, first compound 10 µM): 73.2% | viability, T/C (second compound 10 µM, first compound 0.0316 µM): 36.7% | viability, T/C (second compound 10 µM, first compound 0.1 µM): 37.1% | viability, T/C (second compound 10 µM, first compound 0.316 µM): 41.8% | viability, T/C (second compound 10 µM, first compound 1 µM): 36.7% | viability, T/C (second compound 10 µM, first compound 3.16 µM): 40% | viability, T/C (second compound 10 µM, first compound 10 µM): 46.6%

CC1(C)CCC(Nc2ncc(C(F)(F)F)c(-c3c[nH]c4c(P(C)(C)=O)c(C#N)ccc34)n2)CN1 (stereo unspecified) + COc1c(OCCCN2CCOCC2)ccc2c3n(c(=NC(=O)c4cnc(N)nc4)nc12)CCN3
IC50 (second compound 0.00316 µM): > 10 µM | IC50 (second compound 0.01 µM): > 10 µM | IC50 (second compound 0.0316 µM): < 0.0316 µM | IC50 (second compound 0.1 µM): < 0.0316 µM | IC50 (second compound 0.316 µM): < 0.0316 µM | IC50 (second compound 1 µM): < 0.0316 µM | viability, T/C [1]: 70.8% | viability, T/C [2]: 60.4% | viability, T/C [3]: 68% | viability, T/C [4]: 74.5% | viability, T/C [5]: 77.7% | viability, T/C [6]: 57.5% | viability, T/C [7]: 67.6% | viability, T/C [8]: 62.4% | viability, T/C [9]: 55.2% | viability, T/C [10]: 50.2% | viability, T/C [11]: 73.8% | viability, T/C [12]: 46% | viability, T/C [13]: 44.3% | viability, T/C [14]: 42.6% | viability, T/C [15]: 42.8% | viability, T/C [16]: 38.8% | viability, T/C [17]: 46.9% | viability, T/C [18]: 14.1% | viability, T/C [19]: 28% | viability, T/C [20]: 33.8% | viability, T/C [21]: 28.8% | viability, T/C [22]: 29.8% | viability, T/C [23]: 26.5% | viability, T/C [24]: 8.25% | viability, T/C [25]: 20% | viability, T/C [26]: 24.4% | viability, T/C [27]: 15.6% | viability, T/C [28]: 19.1% | viability, T/C [29]: 17.4% | viability, T/C [30]: 3.95% | viability, T/C [31]: 8.6% | viability, T/C [32]: 12.8% | viability, T/C [33]: 8.27% | viability, T/C [34]: 7.59% | viability, T/C [35]: 10.4% | viability, T/C [36]: 2.66%
